Experimental data from patent US7049321B2, “Methods and pharmaceutical compositions for treatment of central and peripheral nervous system disorders and compounds useful therefor” (Israel Institute for Biological Research, priority 2002, dated 2006).
“Also recorded” adds a separate entry of the source. Read-outs that look alike come from different tables or passages of the source.

What was measured:
[1] = target: T1, M3 (human) (Homo sapiens, UniProt P20309); experiment: PI hydrolysis in cells transfected with human M3; assay type: cell-based; design: expressed in transfected cells
T1 sequence (P20309 whole entry): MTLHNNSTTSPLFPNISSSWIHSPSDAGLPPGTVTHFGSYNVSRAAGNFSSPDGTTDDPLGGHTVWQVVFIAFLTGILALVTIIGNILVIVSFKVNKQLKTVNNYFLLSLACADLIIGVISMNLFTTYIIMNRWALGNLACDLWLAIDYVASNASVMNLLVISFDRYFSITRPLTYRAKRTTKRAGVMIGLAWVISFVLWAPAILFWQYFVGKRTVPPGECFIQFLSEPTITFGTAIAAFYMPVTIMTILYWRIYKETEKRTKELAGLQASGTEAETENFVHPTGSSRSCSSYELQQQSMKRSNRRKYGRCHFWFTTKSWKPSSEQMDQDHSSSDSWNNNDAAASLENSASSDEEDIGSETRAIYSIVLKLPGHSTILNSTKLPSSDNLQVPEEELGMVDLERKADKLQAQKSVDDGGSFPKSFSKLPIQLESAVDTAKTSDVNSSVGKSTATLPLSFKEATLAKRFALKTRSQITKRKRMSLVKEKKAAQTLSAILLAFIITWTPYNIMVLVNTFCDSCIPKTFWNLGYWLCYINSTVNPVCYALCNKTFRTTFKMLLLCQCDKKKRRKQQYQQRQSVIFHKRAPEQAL

[2] = target: M2 (human) (Homo sapiens, UniProt P08172); experiment: Binding study, M2 (human); details: 10 μm
M2 (human), sequence (P08172 whole entry): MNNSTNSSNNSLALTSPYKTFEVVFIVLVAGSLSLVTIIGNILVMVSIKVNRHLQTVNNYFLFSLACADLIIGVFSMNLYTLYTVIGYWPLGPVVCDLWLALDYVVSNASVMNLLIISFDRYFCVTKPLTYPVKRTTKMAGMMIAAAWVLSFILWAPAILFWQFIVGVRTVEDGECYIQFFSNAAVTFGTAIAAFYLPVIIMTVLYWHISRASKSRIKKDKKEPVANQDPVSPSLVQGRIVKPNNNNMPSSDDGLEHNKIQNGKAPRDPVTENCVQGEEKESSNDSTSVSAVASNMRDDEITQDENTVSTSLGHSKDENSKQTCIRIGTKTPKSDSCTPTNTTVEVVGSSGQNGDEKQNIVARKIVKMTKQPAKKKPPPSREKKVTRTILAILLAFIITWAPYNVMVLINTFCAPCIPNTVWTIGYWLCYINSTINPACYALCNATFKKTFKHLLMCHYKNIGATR

[3] = target: T2, M5 receptor (Homo sapiens, UniProt P08912); experiment: PI hydrolysis in cells transfected with human M5; assay type: cell-based
T2 construct: expressed in transfected cells
T2 sequence (P08912 whole entry): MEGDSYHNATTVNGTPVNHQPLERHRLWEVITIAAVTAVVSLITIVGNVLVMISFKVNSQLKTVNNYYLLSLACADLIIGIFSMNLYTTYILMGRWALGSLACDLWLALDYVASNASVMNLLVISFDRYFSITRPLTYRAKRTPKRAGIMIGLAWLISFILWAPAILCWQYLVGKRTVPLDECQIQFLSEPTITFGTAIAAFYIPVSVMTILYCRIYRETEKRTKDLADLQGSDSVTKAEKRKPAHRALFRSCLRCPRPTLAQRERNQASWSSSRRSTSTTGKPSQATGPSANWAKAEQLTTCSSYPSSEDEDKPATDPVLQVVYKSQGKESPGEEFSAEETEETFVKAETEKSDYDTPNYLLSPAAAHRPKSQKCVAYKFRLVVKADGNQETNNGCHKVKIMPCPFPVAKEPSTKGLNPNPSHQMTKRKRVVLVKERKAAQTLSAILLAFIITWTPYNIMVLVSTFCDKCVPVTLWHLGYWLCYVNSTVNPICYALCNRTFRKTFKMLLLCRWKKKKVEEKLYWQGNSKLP

[4] = Caco-2 cell permeability; assay type: in vitro ADME, human; details: human, Caco-2; bi-directional assay; read-out: average permeability coefficient (Papp)
Protocol: (§1) This test is used to determine intestinal permeability of tested compounds. Caco-2 cells, when grown on semipermeable filters, spontaneously differentiate in culture to form confluent monolayers which both structurally and functionally resemble the small intestinal epithelium. Because of this property they are useful as an in vitro model for the study of drug absorption and metabolism during absorption in the intestinal mucosa. Caco-2 monolayers were grown to confluence on collagen-coated, microporous, polycarbonate membranes in 12 well plates and permeability of the test material was determined.

[5] = tested on: Caco-2 monolayers; experiment: Caco-2 cell permeability; assay type: in vitro ADME, human
Protocol: as §1

[6] = tested on: trihexyphenidyl rats; experiment: Passive avoidance in trihexyphenidyl-treated rats; assay type: in vivo, Wistar rats; details: 0.03 mg/kg, po, 72 hrs delay; DDW 93.1±29.0
[7] = target: T1, M3 (human); experiment: Binding study, M3 (human); details: 10 μm
[8] = Cardiac electrophysiology and haemodynamics in awake dogs; assay type: in vivo, Beagle dogs; details: 5 mg/kg orally
Protocol: • 1. Astemizole (human ether-a-go-go related gene (HERG) Channel) Binding Assay. […] Isolated Guinea Pig Right Atrium (atrial fibrillation). […] Effects of AF292 (dose 5 mg/kg orally) on cardiac electrophysiological, cardio-haemodynamic in instrumented, awake dogs. Healthy trained and chronically instrumented female Beagle dogs of varying age and ranging in body weight from 9.4 to 12 kg, were used for recording of the cardiovascular parameters: heart rate, diastolic and systolic blood pressure, pressure rate product, LV dp/dt max, LV dp/dt max/pd, LV dp/dt min, cardiac output, stroke volume, systemic vascular resistance and the ECG parameters (PQ-, QRS-, QT-, QTcBazett-(QTcB), QTcFridericia-(QTcF) and QTcVan de Water-(QTcVdW) interval duration and QT-dispersion. During the last 18 hours prior to the experiments, the dogs had no access to food. Water was available ad libitum. At the beginning of each experiment, control values of the various parameters were recorded for at least 30 min. Thereafter, 5 mg/kg of AF292 (n=4) or the corresponding volume of the solvent (n=4) was administered orally by gavage. The various haemodynamic parameters were recorded continuously for 4 hours thereafter.

[9] = target: CPY2D6 (Homo sapiens, UniProt P10635); experiment: Cytochrome P450 inhibition, CYP2D6; assay type: in vitro ADME; details: up to 10 μM
CPY2D6, sequence (P10635 whole entry): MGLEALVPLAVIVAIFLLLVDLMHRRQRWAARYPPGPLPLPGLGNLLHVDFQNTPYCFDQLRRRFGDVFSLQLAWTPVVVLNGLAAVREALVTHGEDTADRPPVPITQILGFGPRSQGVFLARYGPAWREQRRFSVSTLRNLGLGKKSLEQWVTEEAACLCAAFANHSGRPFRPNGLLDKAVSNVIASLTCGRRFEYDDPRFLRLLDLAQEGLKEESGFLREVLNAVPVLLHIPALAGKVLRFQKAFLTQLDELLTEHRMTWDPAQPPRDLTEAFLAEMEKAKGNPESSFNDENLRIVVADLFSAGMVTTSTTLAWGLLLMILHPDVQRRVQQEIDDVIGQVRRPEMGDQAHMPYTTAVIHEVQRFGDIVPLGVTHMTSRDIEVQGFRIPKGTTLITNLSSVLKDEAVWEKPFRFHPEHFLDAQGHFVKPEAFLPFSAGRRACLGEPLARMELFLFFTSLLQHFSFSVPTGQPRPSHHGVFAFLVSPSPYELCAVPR
Protocol: Cytochrome P450 activity can be an indicator for potential drug-drug interactions. AF292 was evaluated in a microtiter plate assay for P450 inhibition.

[10] = target: mAChR receptors, Rat Cortical (CTX) Membranes; assay type: binding; details: read-out: Ki, QNB
[11] = tested on: β-catenin; experiment: β-catenin stabilization in rat hippocampal neurons; assay type: cell-based
Protocol: (§2) This study was performed in rat hippocampal primary cell cultures using the methods described by Garrido J L et al. (FASEB J 2002; 16:1982).

[12] = tested on: cholesterol-fed rabbits; experiment: Aβ immunoreactivity in cortex of hypercholesterolemic rabbits; assay type: in vivo, New Zealand white rabbits; details: 1 mg/kg, s.c., 10 weeks
From the text: New Zealand white male rabbits were allowed food and water ad libitum. Animals were fed either standard chow or chow supplemented with 2% cholesterol by weight (Purina) for 10 weeks. […] Following 10 weeks of treatment animals were sacrificed and evaluated for Aβ immunohistochemistry, when all sections were stained simultaneously.

[13] = rat, in vivo, po
Protocol: (§3) This calculation was based on the brain weight (2 gr) vs. total plasma volume (14 ml).

[14] = tested on: Primary mixed rat cortical neurons infected with recombinant Semliki Forest virus encoding human APP695 or APP C99 or C111; experiment: Aβ levels in vitro in infected cortical neurons; assay type: cell-based
Protocol: The mechanism of Aβ modulation was tested using C99 (and C111) that are truncated constructs generated from APP. Unlike APP, C99/C111 are direct substrates for γ-secretase. With both constructs it is possible to directly assay for γ-secretase activity, while with APP this is not possible. Both constructs are—as compared to APP—inefficient substrates for α-secretase. Synergistc effects were also evaluated with CDX (methyl-β-cyclodextrin), an agent which extracts cholesterol from the plasma membrane. CDX inhibits also Aβ production. CDX-treated cells were treated in addition to the respective muscarinic agonist for 5 min to reduce the cholesterol content.

[15] = tested on: rat hippocampal neurons; experiment: Survival, morphology and apoptosis of hippocampal neurons exposed to Aβ; assay type: cell-based
Protocol: as §2

[16] = target: muscarinic receptor; experiment: [3H]OXO-M competition binding; details: rat cortex
From the text: The ability of a test compound to displace [^3H]OXO-M binding provides a measure for the affinity of the test compound to the receptor agonist binding site.

[17] = Chronic oral toxicity up to 13 weeks, dog
[18] = in vivo; details: rat
Protocol: as §3

[19] = tested on: Aging microcebes; experiment: Effects in aging microcebes; assay type: in vivo; details: chronic treatment for 18 months
From the text: Aging microcebes show similar cognitive deficits and cerebral lesions to those observed in aging humans and in AD patients. Thus this is a good animal model for AD, mimicing the three major hallmarks in AD {plaques (Aβ), paired helical filaments (hyperphophorylated and aggregated τ) and cognitive dysfunction}. This model may also be used to mimic MCI conducive to AD

CC[C@@H]1SC2(CCNCC2)NC1=O [AF292, (S)-2-Ethyl-1-thia-4,8-diaza-spiro[4.5]decan-3-one]
PI turnover vs. carbachol, M3 ([1]; human M3): No activity; also recorded: PI., AA: M3 mAChR: Not active as agonist
Kb ([1]; read-out: pKb, M3 antagonist (converted)): 660 nM
Binding, % [2]: 61%
PI turnover, M5, agonist activity [3]: No activity; also recorded: PI, AA: M5 mAChR - no effect as agonist
Papp [4]: 17.4 ×10⁻⁶ cm/s
Absorption potential ranking [5]: high absorption potential
Retention latency [6]: 225.9 ± 36 s
Binding, % [7]: 55%
Hemodynamic and ECG parameters [8]: no statistically significant and relevant effect
Inhibition of CPY2D6 [9]: did not induce significant inhibition

CC[C@@H]1SC2(CCN(C)CC2)NC1=O [AF267B, (S)-2-ethyl-8-methyl-1-thia-4,8-diaza-spiro[4.5]decan-3-one]
Ki [10]: 49600 ± 9000 nM
soluble β-catenin level ([11]; 1 μM): 100%
nuclear β-catenin vs control ([11]; 1 μM, Aβ1–40 (5 μM)): 140%
soluble β-catenin level ([11]; 10 μM): 300%
soluble β-catenin level ([11]; 100 μM): 350%
Aβ-induced degradation of soluble β-catenin ([11]; 100 μM, Aβ1–40 (5 μM)): this degradation was prevented
Reduction of intensity of the immunoreactivity [12]: approximately 50%
Reduction of number of neurons expressing Aβ immunoreactivity [12]: 25–30%
% of the compound found in the brain (Cmax brain/Cmax plasma) ([13]; female): 16%
% of the compound found in the brain (Cmax brain/Cmax plasma) ([13]; male): 25%
Active concentration range, decrease of Aβ [14]: active in the μM range
Potency in decreasing Aβ levels relative to AF150(S) [14]: at least 5 fold
Reduction of release of Aβ-like fragments (3–4 Kda) [14]: approximately 50%
γ secretase activity reduction [14]: 50%
p3 fragment ([14]; 1 mM): complete loss
Decrease of Aβ together with CDX ([14]; with CDX (5 mM), to undetectable Aβ levels): synergistic effect
Protection of hippocampal neurons from Aβ1–40 ([15]; 10 μM, Aβ1–40 (5 μM)): > 90%
Aβ1–40-induced apotosis ([15]; 10 μM, Aβ1–40 (5 μm)): to the control level
Survival and morphology of hippocampal neurons, compound alone ([15]; 0.5–50 μM): does not affect the survival and morphology
Neurites after Aβ1–40 (immunofluorescence) ([15]; Aβ1–40 (5 μM)): protected the neurons
Ki [16]: 1620 ± 340 nM
NOAEL ([17]; beagle, dog, in vivo, po): 6 to 9 mg/kg/day
Dose at which effects are seen ([17]; dog): > 9 mg/kg
ECG changes ([17]; up to 13 weeks oral): no changes in the ECG
Kp ([18]; female, iv, 1 mg/kg): 1.32
Kp ([18]; female, po, 2 mg/kg): 1.25
Kp ([18]; male, iv, 1 mg/kg): 1.79
Kp ([18]; male, po, 2 mg/kg): 2.43

CC1=NCC2(CCN(C)CC2)S1 [AF150(S), 2,8-Dimethyl-1-thia-3,8-diaza-spiro[4.5]dec-2-ene]
Astrogliosis and inflammation [19]: decreased astrogliosis and inflammation
Cognitive and behavioral impairments [19]: improved the cognitive and behavioral impairments
Hyperphosphorylated τ, aggregated τ neurons, paired helical filaments [19]: decreased hyperphosphorylated τ proteins
